For experiment [1], the system named is 5-HETE synthesis by rat glycogen-elicited polymorphonuclear leukocytes (5-lipoxygenase). As to the kind of experiment: Inhibition of 5-HETE synthesis by rat glycogen-elicited polymorphonuclear leukocytes (A23187, [14C] arachidonic acid). The class given is cell-based, rat (Wistar). The conditions noted are these: for IC50: Leukocyte, rat peritoneal PMN, 5-HETE synthesis, read-out: 50% Inhibitory Concentration (IC50), 5-HETE. As for the experimental part: This is especially true with respect to 5,12-diHETE, which is also denoted as LTB4 [see Ford-Hitchinson, J. Roy. Soc. Med., 74, 831 (1981)]. The assay of this Example measures the ability of the compounds of the invention to inhibit the synthesis of 5-HETE and LTB4 by rat glycogen-elicited polymorphonuclear leukocytes.
(§1) The assay is carried out as follows:
(§2) Peritoneal PMN are obtained from female Wistar rats (150-250 g) that received an i.p. injection of 6% glycogen (10 ml). After 24 hours, rats are killed by CO2 asphyxiation and peritoneal cells are harvested by peritoneal lavage using Ca^++ and Mg^++ free Hanks' balanced salt solution (HBSS). The peritoneal exudate is centrifuged at 400 g for 10 minutes. After centrifugation, the lavaged fluid is removed and the cell pellet is resuspended in HBSS containing Ca^++ and Mg^++ and 10 mM L-cysteine at a concentration of 2×10^7 cells/ml. To 1 ml portions of cell suspension, test drugs or vehicle are added and incubated at 37° C. for 10 minutes. Following this preincubation, the calcium ionophore (10 μM), A23187, is added together with 0.5 μCi [^14 C] arachidonic acid and further incubated for 10 minutes. The reaction is stopped by the addition of ice cold water (3 ml) and acidifying to pH 3.5. Lipoxygenase products are then extracted twice into diethyl ether. The pooled ether extracts are evaporated to dryness under nitrogen and the residue is redissolved in a small volume of methanol and spotted on aluminum backed pre-coated thin layer chromatographic plates. The samples are then co-chromatographed with authentic reference 5-HETE in the solvent system--hexane:ether:acetic acid (50:50:3). After chromatography, the areas associated with 5-HETE standard are identified by autoradiography, cut out and quantitated by liquid scintillation.
Results are expressed as % inhibition of [^14 C]5-HETE synthesis. [formula]

Experiment [2] deals with TxB2 synthesis (cyclooxygenase). As to the kind of experiment: Inhibition of synthesis of TxB2 by rat polymorphonuclear leukocytes. The class given is cell-based, rat (Wistar). The conditions noted are these: for IC50: Leukocyte, rat PMN, TxB2, read-out: % Inhibitory Concentration (IC50), Inhibition of Synthesis of TxB2. The procedure:
as §2
(§3) The procedure of Example 2 is also employed for the determination of the ability of the compounds of the invention to inhibit the synthesis of the arachidonic acid cyclooxygenase oxidation products TxB2 and PGE2.
In this assay, the procedure of Example 2 is carried out as described. […] After chromatography, the areas associated with TxB2 and PGE2 standards are identified by autoradiography, cut out and quantitated by liquid scintillation techniques.
(§4) The results are calculated as in Example 2 and presented below.

Experiment [3] has as its system PGE2 synthesis (cyclooxygenase). Briefly: Inhibition of synthesis of PGE2 by rat polymorphonuclear leukocytes. In kind it is cell-based, rat (Wistar). The conditions noted are these: for IC50: Leukocyte, PGE2, read-out: 50% Inhibitory Concentration (IC50), Inhibition of Synthesis of PGE2; for IC50 / influence on the synthesis of PGE2 (in words): rat PMN; for cyclooxygenase inhibitory activity (in words): conclusion from TxB2 and PGE2 results. As for the experimental part: as §2, §3
In this assay, the procedure of Example 2 is carried out as described. However, in order to determine cyclooxygenase activity, the samples are cochromatographed with authentic reference TxB2 and PGE2 in the solvent system ethyl acetate:formic acid (80:1) and the upper phase of ethyl acetate:isoctane:acetic acid:water (110:50:20:100). After chromatography, the areas associated with TxB2 and PGE2 standards are identified by autoradiography, cut out and quantitated by liquid scintillation techniques.
as §4

Experiment [4] relates to leukotrienes C4 and/or D4 induced bronchospasm. As to the kind of experiment: In vivo inhibition of bronchospasm induced in guinea pigs by exogenously administered leukotrienes C4 and/or D4. Also on record: species or system guinea pig (Hartley). The conditions noted are these: for % Maximal Bronchoconstriction / % Inhibition: 10 minutes before induction of bronchospasm; for % Inhibition: compared to its control (*P < 0.05; ***P < 0.001); for leukotriene antagonism (in words): summary of guinea pig results.

The subject of experiment [5] is ovalbumin-induced bronchoconstriction. As to the kind of experiment: In vivo inhibition of ovalbumin-induced (anaphylactic) bronchoconstriction by endogenous mediators in sensitized guinea pigs. Also on record: species or system guinea pig (Hartley). The conditions noted are these: 50 mg/kg intraduodenally, 10 minutes before i.v. ovalbumin challenge; for % Inhibition: compared to its control (*P < 0.05; ***P < 0.005). As for the experimental part:
The assay of this Example measures the in vivo ability of the compounds of the invention to inhibit the bronchospasm induced in guinea pigs by endogenous mediators of the bronchoconstriction.
as §1
Male Hartley strain guinea pigs weighing 250-350 g are sensitized to chicken ovalbumin (OA) (10 mg i.p.) on days 1 and 3 and used starting on day 26. The animals are anesthetized with pentobarbital sodium (50 mg/kg, i.p.), bilateral vagotomy is performed, and the jugular vein is cannulated for injection of drugs and the carotid artery for monitoring blood pressure. The trachea is cannulated for artificial ventilation by miniature Starling pump and for indirect measurement of respiratory volume changes as described, infra. Succinylcholine (2 mg/kg, i.v.) is administered to arrest spontaneous respiration. A cyclooxygenase inhibitor, indomethacin (10 mg/kg in tris buffer, i.v. at 9 min.) is administered to shunt arachidonic metabolism to lipoxygenase pathways. One minute later, chlorpheniramine (1.0 mg/kg in saline, i.v.) is given to attenuate the histaminic component of anaphylactic bronchoconstriction. Test drugs (dissolved in propylene glycol, polyethylene glycol or saline) are administered either intraduodenally or by aerosol at 2 or 10 minutes before antigen challenge. Anaphylactic bronchoconstriction is induced by administration by breaths of aerosolized OA (1%) or by intravenous administration of 0.1-0.3 mg/kg OA in saline. Control animals receive solvent (2 ml/kg i.d. or appropriate aerosol) in place of drug.
Respiratory volume changes are determined by a calibrated piston whose travel is recorded, via a linear transducer, on a Beckman Dynograph recorder. Maximal bronchoconstrictor volume is determined by clamping off the trachea at the end of the experiment. Overflow volumes at minutes 1, 3 and 5 are obtained from the recorded charts.
Area under the volume overflow curve (AUC) is estimated, using the overflow values at 1, 3 and 5 minutes, and expressed as a percentage of the maximal overflow AUC (equation 1): [formula] Drug effects are reported as percent inhibition of % max AUC values obtained from appropriate control animals (equation 2): [formula] Students t-test for unpaired data is used to determine statistical significance.

Entries after “also recorded” stand apart in the source; their conditions may differ. Bounds are passed on as bounds.

One may read the % Inhibition as the drop in the measured response relative to a control, in per cent. Take `Oc1ccccc1OCc1ccc2ccccc2n1` [2-(2-quinolinylmethoxy)phenol, reference compound]: the IC50 in experiment [1] is 53 µM. Further, the IC50 in experiment [2] is 6.82 µM. Also, in experiment [2] (as potent as the compound of Example 1), the “potency in inhibiting TxB2 synthesis relative to the compound of Example 1” value is on record as “twice as potent”. In experiment [3], the IC50 came to 5.82 µM, the “cyclooxygenase inhibitory activity (in words)” value is listed as “potent activity as a cyclooxygenase inhibitor” and the “influence on the synthesis of PGE2 (in words)” value is “quite significantly active”. For the same compound, in experiment [4] (50 mg/kg intraduodenally), the “% Maximal Bronchoconstriction” value is reported as 43 ± 6% and the “% Inhibition” value turned out to be 28%. In experiment [4], the “leukotriene antagonism (in words)” value is given as “ability to block leukotriene responses”. In experiment [5], the “% Maximal Bronchoconstriction” value turned out to be 31 ± 6% and the “% Inhibition” value amounted to 47%.

With `Oc1cccc(OCc2ccc3ccccc3n2)c1` [Example 1, 3-(2-Quinolinylmethoxyl)phenol], the IC50 in experiment [1] was 6.07 µM; in experiment [2] it was 14.6 µM; in experiment [3], more than 100 µM. Moreover, the “5-lipoxygenase inhibition (in words)” value in experiment [1] (conclusion from Example 2) was “very potent 5-lipoxygenase inhibitor; also recorded: significant 5-lipoxygenase inhibition; also recorded: strong inhibitor of 5-lipoxygenase”. The “potency in inhibiting the synthesis of 5-HETE relative to the prior art compound” value in experiment [1] (rat peritoneal neutrophils, more potent than the prior art compound) is on record as “approximately an order of magnitude more potent”. Also, the “cyclooxygenase inhibitory activity (in words)” value in experiment [3] is recorded as “little or no significant cyclooxygenase inhibitory activity”. For the same compound, in experiment [3], the “influence on the synthesis of PGE2 (in words)” value was “failure”. Besides, the “% Maximal Bronchoconstriction” value in experiment [4] (50 mg/kg intraduodenally) turned out to be 10 ± 1%; in experiment [5], 21 ± 8%. Besides, the “% Inhibition” value in experiment [4] (50 mg/kg intraduodenally) came out at 82%; in experiment [5], 53%. Further, in experiment [4], the “leukotriene antagonism (in words)” value is on record as “potent leukotriene antagonist”. In addition, the “potency as inhibitor of LTD4-induced bronchoconstriction relative to the prior art compound” value in experiment [4] (times more potent than the prior art compound, 50 mg/kg intraduodenally) is reported as “approximately three”.

These data come from patent publication US4642347A, “3(2-quinolinylalkoxy)phenols” (American Home Products Corporation, priority 1985, dated 1987).
